Assay results taken from patent publication US20160159861A1, “APJ Receptor Compounds” (priority 2013, published 2016).
Like-named read-outs stand apart in the source and are kept apart here. Peptide text beside a SMILES is read from it.

Assays:
Assay type in all cases: cell-based
[1] = molecular target: T1, human APJ receptor (hAPJ) (Homo sapiens, UniProt P35414); experiment: HTRF cAMP assay: inhibition of NKH477-stimulated cAMP in HEK cells stably expressing hAPJ; settings: for Emax: HEK293, read-out: % IA, bound stated; for % IA (cAMP inhibition, hAPJ HEK): intrinsic activity; for Ranking: composite class of EC50 (hAPJ), % IA and % histamine or formal (+) charge; for inhibition of NKH477-stimulated increase in cAMP, dose dependent: concentration response curves, FIGS. 1 and 2, HEK cells stably expressing APJ
T1 construct: expressed in transfected cells
T1 sequence (P35414 1-380): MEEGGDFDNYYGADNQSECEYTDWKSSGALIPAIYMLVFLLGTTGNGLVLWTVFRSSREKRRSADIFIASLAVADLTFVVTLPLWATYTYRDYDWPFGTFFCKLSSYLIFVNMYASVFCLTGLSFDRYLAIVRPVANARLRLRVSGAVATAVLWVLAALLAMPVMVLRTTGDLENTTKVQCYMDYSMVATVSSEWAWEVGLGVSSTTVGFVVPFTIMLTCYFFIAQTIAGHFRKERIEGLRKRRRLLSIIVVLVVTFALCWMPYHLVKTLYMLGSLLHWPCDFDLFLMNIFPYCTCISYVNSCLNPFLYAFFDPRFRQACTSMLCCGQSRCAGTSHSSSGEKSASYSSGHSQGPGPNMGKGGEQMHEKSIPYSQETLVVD
How it was run: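 HEK cells stably expressing hAPJ, induced with 1 nG/mL doxycycline and seeded overnight at 40 k/well. cAMP read by HTRF competitive immunoassay using cryptate-labeled anti-cAMP antibody and d2-labeled cAMP.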

APJ receptor [2] = molecular target: T2, APJ receptor (Homo sapiens, UniProt P35414); experiment: DiscoveRx PathHunter β-arrestin recruitment assay; settings: for β-arrestin recruitment: dose dependent chemiluminescence, FIGS. 3A-3B; for Emax: read-out: β-arrestin Signaling Max Response
T2 sequence (P35414 1-380): T1 sequence (P35414 1-380)
Source text: Activation of the β-Arrestin signaling pathway was monitored using the commercially available DiscoveRx PathHunter® assay. This assay employs a homogenous, non-imaging assay format called Enzyme Fragment Complementation (EFC) using β-galactosidase (β-Gal) as the functional reporter. […] EA is fused to β-Arrestin and ED is fused to the GPCR of interest. When the GPCR is activated and β-Arrestin is recruited to the receptor, ED and EA complementation occurs, restoring βGal activity which is measured using chemiluminescent PathHunter® Detection Reagent.

rat peritoneal cells = experiment: Ex vivo histamine release assay in rat peritoneal cells (vs. Compound 48/80)
How it was run: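 Resident peritoneal cells were lavaged from male Sprague Dawley rats and kept in HBSS/20 mM HEPES/0.2% BSA at 25,000 cells/well. They were exposed for 30 min at room temperature to compound at 3 points (100, 10, 1 μM DMSO stocks, 1% DMSO final). Released histamine was measured by HTRF and normalised to total histamine after Triton lysis. Compound 48/80 was the reference.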

CXCR4 receptor = CXCR4 receptor (Homo sapiens, UniProt P61073); experiment: Activity at CXCR4 receptor (selectivity, Gi-coupled GPCR); settings: FIGS. 6A-6C, selectivity vs. hAPJ
APJ receptor [3] = molecular target: T2, APJ receptor; experiment: Cellul'erk ERK phosphorylation assay in APJ-TREX cells; set-up: expressed in transfected cells; host or cells: Human TRex (APJ-TREX) cells, doxycycline-inducible expression; settings: relative to max pyr-apelin-13 activity at 100 nM; 3 or 0.3 μM compound, 5 minutes
Method: Experiments were performed to test activation of the ERK and p38 pathways using the Cellul'erk and the Phospho-p38 MAPK (Thr180/Tyr182) assay kits (Cisbio). APJ-TREX cells were optimized for signaling (pre-serum starved overnight with low FBS serum (2% FBS media) with 1 ng/ml doxycyclin (for induction of APJ receptor expression), 50,000 cells, 5 minutes agonist activation for ERK activity). Cells were pretreated with 3 or 0.3 μM pepducin compound for 5 minutes and the reaction was stopped by lysis buffer. Lysates are then transferred to the assay plate for the detection of phosphorylated ERK or p38 by HTRF reagents.

[4] = EC50 (cAMP inhibition, hAPJ HEK), Table 6, hAPJ HEK cells, NKH477-stimulated cAMP
[5] = EC50 (hAPJ), inhibition of cAMP production, bound stated, HTRF cAMP Assay, per data of Table 6
[6] = HTRF cAMP Assay, per data of Table 6
[7] = histamine release from rat peritoneal cells relative to Compound 48/80
[8] = HTRF cAMP Assay, per data of Table 6, read-out: EC50 (hAPJ), inhibition of cAMP production, bound stated
[9] = Table 6, hAPJ HEK cells, NKH477-stimulated cAMP, read-out: EC50 (cAMP inhibition, hAPJ HEK)

CXCR4 receptor, sequence (P61073 whole entry): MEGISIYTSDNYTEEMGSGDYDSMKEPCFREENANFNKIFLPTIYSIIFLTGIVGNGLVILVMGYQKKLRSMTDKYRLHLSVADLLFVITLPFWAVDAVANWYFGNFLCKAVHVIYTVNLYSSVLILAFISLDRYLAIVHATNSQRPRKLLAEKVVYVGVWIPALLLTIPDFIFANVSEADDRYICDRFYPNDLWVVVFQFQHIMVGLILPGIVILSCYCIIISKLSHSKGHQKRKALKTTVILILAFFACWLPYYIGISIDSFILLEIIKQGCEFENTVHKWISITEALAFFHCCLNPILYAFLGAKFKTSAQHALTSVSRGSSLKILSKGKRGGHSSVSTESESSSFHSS

SMILES	EC50 [1, 8]	EC50 [1, 9]	EC50 (APJ receptor [2]; PathHunter chemiluminescence, read-out: β-arrestin Signaling EC50)	Histamine (% vs. 48/80) (rat peritoneal cells)	activity at the CXCR4 receptor (CXCR4 receptor)	EC50 [1, 4]	EC50 [1, 5]	Emax [1, 6]	% IA (cAMP inhibition, hAPJ HEK) ([1]; Table 6, hAPJ HEK cells)	Ranking [1]	EC50 (APJ receptor [2])	β-arrestin recruitment (APJ receptor [2])	Emax (APJ receptor [2])	Histamine (% vs. 48/80) (rat peritoneal cells; [7])	inhibition of NKH477-stimulated increase in cAMP, dose dependent [1]	Average % Activity (ERK agonist activity) (APJ receptor [3])
CCCCCCCCCCCCCCCC(=O)N1CCC[C@H]1C(=O)N[C@H](C(=O)N[C@H](C(=O)N[C@@H](Cc1ccccc1)C(=O)N[C@@H](CCCNC(=N)N)C(=O)N[C@@H](CO)C(=O)N1CCC[C@H]1C(=O)N[C@@H](CO)C(=O)N[C@@H](CCC(=O)O)C(=O)N[C@H](CCCCN)C(=O)N[C@@H](CCCNC(=N)N)C(=O)N[C@@H](CCCNC(=N)N)C(=O)N[C@@H](CO)C(=O)N[C@@H](C)C(=O)N[C@@H](CC(=O)O)C(=O)N[C@H](C(=O)N[C@@H](Cc1ccccc1)C(=O)N[C@H](C(N)=O)[C@@H](C)CC)[C@@H](C)CC)C(C)C)[C@@H](C)O [Compound 3] (HELM PEPTIDE1{[CCCCCCCCCCCCCCCC(=O)[*:2]].P.T.V.F.R.S.P.S.E.[dK].R.R.S.A.D.I.F.I.[am]}$$$$V2.0)						13 nM	≤ 25 nM	≥ 80%	90%	**** (EC50≦25 nM (hAPJ), % IA≧80% and either % histamine>35% or formal (+) charge>1)	8.2 nM	weakly engaged	11%	64%		
CCCCCCCCCCCCCCCC(=O)N[C@H](C(=O)N[C@H](C(=O)N[C@@H](Cc1ccccc1)C(=O)N[C@@H](CCCNC(=N)N)C(=O)N[C@@H](CO)C(=O)N[C@@H](CO)C(=O)N[C@@H](CCC(=O)O)C(=O)N[C@H](CCCCN)C(=O)N[C@@H](CCCNC(=N)N)C(=O)N[C@@H](CCCNC(=N)N)C(=O)N[C@@H](CO)C(=O)N[C@@H](C)C(=O)N[C@@H](CC(=O)O)C(=O)N[C@@H](CC(N)=O)C(=O)N[C@@H](Cc1ccccc1)C(=O)N[C@H](C(N)=O)[C@@H](C)CC)C(C)C)[C@@H](C)O [Compound 18] (HELM PEPTIDE1{[CCCCCCCCCCCCCCCC(=O)[*:2]].T.V.F.R.S.S.E.[dK].R.R.S.A.D.N.F.I.[am]}$$$$V2.0)	≤ 25 nM	15 nM			lack of dose-responsive activity			≥ 80%	117%	**** (EC50≦25 nM (hAPJ), % IA≧80% and either % histamine>35% or formal (+) charge>1)					inhibited	
CCCCCCCCCCCCCCCC(=O)N[C@H](C(=O)N[C@H](C(=O)N[C@@H](Cc1ccccc1)C(=O)N[C@@H](CCCNC(=N)N)C(=O)N[C@@H](CO)C(=O)N[C@@H](CO)C(=O)N[C@@H](CCC(=O)O)C(=O)N1CCC[C@H]1C(=O)N[C@H](CCCCN)C(=O)N[C@@H](CCCNC(=N)N)C(=O)N[C@@H](CCCNC(=N)N)C(=O)N[C@@H](CO)C(=O)N[C@@H](C)C(=O)N[C@@H](CC(=O)O)C(=O)N[C@H](C(=O)N[C@@H](Cc1ccccc1)C(=O)N[C@H](C(N)=O)[C@@H](C)CC)[C@@H](C)CC)C(C)C)[C@@H](C)O [Compound 27] (HELM PEPTIDE1{[CCCCCCCCCCCCCCCC(=O)[*:2]].T.V.F.R.S.S.E.P.[dK].R.R.S.A.D.I.F.I.[am]}$$$$V2.0)						7 nM	≤ 25 nM	≥ 80%	105%	**** (EC50≦25 nM (hAPJ), % IA≧80% and either % histamine>35% or formal (+) charge>1)	8.1 nM	weakly engaged	23.7%	67%	inhibited	
CCCCCCCCCCCCCCCC(=O)N[C@H](C(=O)N[C@H](C(=O)N[C@@H](Cc1ccccc1)C(=O)N[C@@H](CCCNC(=N)N)C(=O)N[C@@H](CO)C(=O)N[C@@H](CO)C(=O)N1CCC[C@H]1C(=O)N[C@@H](CCC(=O)O)C(=O)N[C@H](CCCCN)C(=O)N[C@@H](CCCNC(=N)N)C(=O)N[C@@H](CCCNC(=N)N)C(=O)N[C@@H](CO)C(=O)N[C@@H](C)C(=O)N[C@@H](CC(=O)O)C(=O)N[C@H](C(=O)N[C@@H](Cc1ccccc1)C(=O)N[C@H](C(N)=O)[C@@H](C)CC)[C@@H](C)CC)C(C)C)[C@@H](C)O [Compound 25] (HELM PEPTIDE1{[CCCCCCCCCCCCCCCC(=O)[*:2]].T.V.F.R.S.S.P.E.[dK].R.R.S.A.D.I.F.I.[am]}$$$$V2.0)						15 nM	≤ 25 nM	≥ 80%	138%	**** (EC50≦25 nM (hAPJ), % IA≧80% and either % histamine>35% or formal (+) charge>1)	3.1 nM	weakly engaged	12.6%	51%	inhibited	25.5%

The next lines start with results.

EC50 [1, 8]	EC50 [1, 9]	EC50 (APJ receptor [2]; PathHunter chemiluminescence, read-out: β-arrestin Signaling EC50)	Histamine (% vs. 48/80) (rat peritoneal cells)	activity at the CXCR4 receptor (CXCR4 receptor)	SMILES	EC50 [1, 4]	EC50 [1, 5]	Emax [1, 6]	% IA (cAMP inhibition, hAPJ HEK) ([1]; Table 6, hAPJ HEK cells)	Ranking [1]	EC50 (APJ receptor [2])	β-arrestin recruitment (APJ receptor [2])	Emax (APJ receptor [2])	Histamine (% vs. 48/80) (rat peritoneal cells; [7])	inhibition of NKH477-stimulated increase in cAMP, dose dependent [1]	Average % Activity (ERK agonist activity) (APJ receptor [3])
≤ 25 nM	11 nM	59.6 nM	73%		CCCCCCCCCCCCCCCC(=O)N[C@H](C(=O)N[C@H](C(=O)N[C@@H](Cc1ccccc1)C(=O)N[C@@H](CCCNC(=N)N)C(=O)N[C@@H](CO)C(=O)N[C@@H](CO)C(=O)N1CCC[C@H]1C(=O)N[C@@H](CCC(=O)O)C(=O)N[C@H](CCCCN)C(=O)N[C@@H](CCCNC(=N)N)C(=O)N[C@@H](CCCNC(=N)N)C(=O)N[C@@H](CO)C(=O)N[C@@H](C)C(=O)N[C@@H](CC(=O)O)C(=O)N[C@H](C(=O)N[C@@H](Cc1ccccc1)C(=O)N1CCC[C@H]1C(N)=O)[C@@H](C)CC)C(C)C)[C@@H](C)O [Compound 26] (HELM PEPTIDE1{[CCCCCCCCCCCCCCCC(=O)[*:2]].T.V.F.R.S.S.P.E.[dK].R.R.S.A.D.I.F.P.[am]}$$$$V2.0)			≥ 80%	105%	**** (EC50≦25 nM (hAPJ), % IA≧80% and either % histamine>35% or formal (+) charge>1)		weakly engaged	46%		inhibited	
≤ 25 nM	17 nM			lack of dose-responsive activity	CCCCCCCCCCCCCCCC(=O)N[C@H](C(=O)N[C@H](C(=O)N[C@@H](Cc1ccccc1)C(=O)N[C@@H](CCCNC(=N)N)C(=O)N[C@@H](CO)C(=O)N[C@@H](CO)C(=O)N[C@@H](CCC(=O)O)C(=O)N1CCC[C@H]1C(=O)N[C@H](CCCCN)C(=O)N[C@@H](CCCNC(=N)N)C(=O)N[C@@H](CCCNC(=N)N)C(=O)N[C@@H](CO)C(=O)N[C@@H](C)C(=O)N[C@@H](CC(=O)O)C(=O)N[C@H](C(=O)N[C@@H](Cc1ccccc1)C(=O)N1CCC[C@H]1C(N)=O)[C@@H](C)CC)C(C)C)[C@@H](C)O [Compound 28] (HELM PEPTIDE1{[CCCCCCCCCCCCCCCC(=O)[*:2]].T.V.F.R.S.S.E.P.[dK].R.R.S.A.D.I.F.P.[am]}$$$$V2.0)			≥ 80%	99%	**** (EC50≦25 nM (hAPJ), % IA≧80% and either % histamine>35% or formal (+) charge>1)						34.7%
